Measured values from patent US20110166162A1, “1,2-Benzisothiazole Compounds Useful for Combating Animal Pests” (priority 2007, published 2011).

Columns and labels:
Format in all cases: in vivo
[1] = tested on: rice green leafhopper (nephotettix virescens); assay: Rice green leafhopper on sprayed rice seedlings; conditions: 300 ppm, adults, after 72 hours
Protocol: II.12 Rice Green Leafhopper (nephotettix virescens)
Rice seedlings were cleaned and washed 24 hours before spraying. The active compounds were formulated in 50:50 acetone:water (vol/vol), and 0.1% (vol/vol) surfactant (EL 620) was added. Potted rice seedlings were sprayed with 5 ml test solution, air dried, placed in cages and inoculated with 10 adults. Treated rice plants were kept at about 28-29° C. and relative humidity of about 50-60%. Percent mortality was recorded after 72 hours.

[2] = tested on: green peach aphid (Myzus persicae); assay: Green peach aphid, pepper plant leaf dip test; conditions: 300 ppm; pepper plants dipped; after 5 days
From the text: II.11 Green Peach Aphid (myzus persicae)
(§1) The active compounds were formulated in 50:50 acetone:water (vol/vol) and 100 ppm Kinetic™ surfactant.
Pepper plants in the 2nd leaf-pair stage (variety “California Wonder”) were infested with approximately 40 laboratory-reared aphids by placing infested leaf sections on top of the test plants. The leaf sections were removed after 24 hr. The leaves of the intact plants were dipped into gradient solutions of the test compound and allowed to dry. Test plants were maintained under fluorescent light (24 hour photoperiod) at about 25° C. and about 20-40% relative humidity. Aphid mortality on the treated plants, relative to mortality on check plants, was determined after 5 days.

[3] = tested on: silverleaf whitefly (bemisia argentifolii); assay: Silverleaf whitefly, cotton cotyledon dip test; conditions: 300 ppm; cotyledons dipped; 3 days after treatment
Protocol: II.9 Silverleaf Whitefly (bemisia argentifolii)
as §1
Selected cotton plants were grown to the cotyledon state (one plant per pot). The cotyledons were dipped into the test solution to provide complete coverage of the foliage and placed in a well-vented area to dry. Each pot with treated seedling was placed in a plastic cup and 10 to 12 whitefly adults (approximately 3-5 day old) were introduced. The insects were collected using an aspirator and a Tygon® tubing connected to a barrier pipette tip. The tip containing the collected insects was then gently inserted into the soil containing the treated plant allowing insects to crawl out of the tip to reach the foliage for feeding. The cups were covered with a re-usable screened lid. Test plants were maintained in the holding room at about 25° C. and about 20-40% relative humidity for 3 days avoiding direct exposure to the fluorescent light (24 hour photoperiod) to prevent trapping of heat inside the cup. Mortality was assessed 3 days after treatment of the plants.

adult female rats = assay: Acute oral rat toxicity study, single oral gavage, 14 days observation; conditions: three rats per study, single oral gavage dose 100 mg/kg bw
Protocol: Some representatives of the compounds according to the present invention have been tested in acute oral rat toxicity studies.
In these studies, test substances were administered to adult female rats by oral gavage for one time. The compounds were administered as a 1% b.w. suspension or the compound in a 1% aqueous carboxymethyl cellulose solution. In each study three rats were used. The animals were treated with a single dose of 100 mg/kg bw. […] After the 14 day observation period, the animals were sacrificed, dissected, and examined for gross pathological lesions.

## COc1cc(CN2C(=O)c3cc(-c4ccc(F)cc4F)ccc3S2(=O)=O)ccn1 [I.19]
[1]
  mortality in comparison with untreated controls: over 75%

## O=C1c2cc(-c3ccc(F)cc3F)ccc2S(=O)(=O)N1Cc1ccncc1 [I.20]
[2]
  mortality in comparison with untreated controls: over 75%

## O=C1c2cc(-c3ccc(F)cc3F)ccc2S(=O)(=O)N1Cc1ccnc2cc(C(F)(F)F)ccc12 [I.28]
[3]
  mortality in comparison with untreated controls: over 75%

## Cc1nccc(CN2C(=O)c3cc(-c4ccc(C(F)(F)F)cc4Cl)ccc3S2(=O)=O)c1C [I.34]
Adult female rats
  Lethality (cumulative) 0-5 h after treatment: 0
  Lethality (cumulative) 1 d after treatment: 0
  Lethality (cumulative) 2 d after treatment: 0
  Lethality (cumulative) 7 d after treatment: 0
  Lethality (cumulative) 14 d after treatment: 1

## Cc1nccc(CN2C(=O)c3cc(-c4ccc(Cl)cc4C(F)(F)F)ccc3S2(=O)=O)c1C [I.35]
Adult female rats
  Lethality (cumulative) 0-5 h after treatment: 0
  Lethality (cumulative) 1 d after treatment: 0
  Lethality (cumulative) 2 d after treatment: 0
  Lethality (cumulative) 7 d after treatment: 0
  Lethality (cumulative) 14 d after treatment: 2
